Assay results from US11608335B2, “Somatostatin modulators and uses thereof” (CRINETICS PHARMACEUTICALS, INC., priority 2018, dated 2023).
Read-outs that look alike come from different tables or passages of the source.

What was measured:
[1] = biological target: human somatostatin receptor subtype 5 (Homo sapiens, UniProt P35346); test: cAMP assay for SST5R (inhibition of cAMP via human SST5 receptor); details: for Fold selectivity for SST5 vs SST2: SST5 over SST2, class symbols
[2] = biological target: T1, human somatostatin receptor subtype 4 (Homo sapiens, UniProt P31391); test: cAMP assay for hSST4R (inhibition of cAMP via human SST4 receptor); assay type: cell-based; details: from inhibition of cAMP via human SST5 receptor and human SST4 receptor
T1 construct: expressed in transfected cells
From the text: cAMP Assay Protocol hSST4R:

[3] = biological target: T2, human somatostatin receptor subtype 3 (Homo sapiens, UniProt P32745); test: cAMP assay for SST3R (inhibition of cAMP via human SST3 receptor); assay type: cell-based; details: from inhibition of cAMP via human SST5 receptor and human SST3 receptor
T2 construct: expressed in transfected cells
From the text: cAMP Assay Protocol for SST3R:

[4] = biological target: T3, human somatostatin receptor subtype 2 (Homo sapiens, UniProt P30874); test: cAMP assay for SST2R (inhibition of cAMP via human SST2 receptor); assay type: cell-based; details: Table B, read-out: SST2 potency
T3 construct: expressed in transfected cells
From the text: cAMP Assay Protocol for SST2R:

[5] = biological target: T4, Cytochrome P450 (CYP) 2D6 enzyme (Homo sapiens, UniProt P10635); test: Cytochrome P450 (CYP) 2D6 enzyme time dependent inhibition (TDI) assay; assay type: in vitro ADME; details: human liver microsomes
T4 construct: using pooled male and female human liver microsomes; from tissue; host or cells: pooled male and female human liver microsomes
Method: Example B-3: Cytochrome P450 (CYP) 2D6 Enzyme Time Dependent Inhibition (TDI) Assay Protocol
The NADPH-generating system mix was composed of potassium phosphate buffer pH 7.4 (50 mM), NADP+ (1 mM), magnesium chloride (3 mM), EDTA (1 mM), glucose-6-phosphate (5 mM), glucose-6-phosphate dehydrogenase (1 Unit/mL), human liver microsomes (0.1 mg/mL) and water. Compounds of interest in DMSO serial diluted to six different concentrations (final DMSO content of 0.1% v/v) were added to the NADPH-generating system. CYP 2D6 substrate Dextromethorphan was added at a final incubation concentration of 5 μM. The final incubation volume was 200 μL. Incubations were conducted at 37° C. for 10 minutes in a shaking water bath to evaluate the drug candidates as […] of CYP 2D6. In a separate test plate, drug candidates were pre-incubated at 37° C. for 30 minutes in a shaking water bath in NADPH-generating system mix in the absence of Dextromethorphan substrate to allow for the formation of metabolites. This plate was removed from the water bath and placed on ice for 5 minutes. Dextromethorphan substrate was then added and the plate was incubated at 37° C. for 10 minutes in a shaking water bath to determine if any metabolites formed during the 30 minute pre-incubation inhibit the CYP 2D6 enzyme. All incubations were terminated by removing 50 μL of incubation mixture and adding to 200 μL of ice cold acetonitrile containing internal standard. Following precipitation by centrifugation at 3500 rpm and 4° C. for 30 minutes, the resultant supernatant were analyzed by using a multiple reaction monitoring (MRM) LC-MS/MS method detecting for internal standard and the CYP 2D6 enzyme mediated Dextromethorphan O-demethylation metabolite Dextrorphan and IC50 values were determined.
(§1) Table E illustrates representative human liver microsomal stability and time dependent CYP2D6 inhibition (TDI) of exemplary compounds.

[6] = Liver microsomal stability assay; assay type: in vitro ADME; details: both sexes, human, pooled human liver microsomes; read-out: HLM Stability t½
Method: Example B-2: Liver Microsomal Stability Assay Protocol
The in vitro stabilities of compounds of interest were determined for various species using pooled male and female human, pooled male Sprague-Dawley rat, pooled male Cynomolgus monkey, and pooled male Beagle dog liver microsomes at microsomal protein concentrations of 0.5 mg/mL. Incubations were carried out in a potassium phosphate buffer (50 mM). The NADPH-generating system was composed of NADP+ (1 mM), magnesium chloride (3 mM), EDTA (1 mM), glucose-6-phosphate (5 mM) and glucose-6-phosphate dehydrogenase (1 Unit/mL) for all experiments. Compounds of interest in DMSO/acetonitrile were added to achieve a final incubation concentration of 1 μM (final DMSO content was 0.1% v/v and final acetonitrile content was 0.9%). The final incubation volume was 400 μL. Incubations were conducted at 37° C. for 0, 5, 10, 20, 40 and 60 minutes in a shaking water bath and terminated by removing 50 μL of incubation mixture and adding to 100 μL of ice cold acetonitrile containing internal standard. Following precipitation by centrifugation at 3500 rpm and 4° C. for 30 minutes, compounds of interest and internal standard were analyzed in the resultant supernatant using a multiple reaction monitoring (MRM) LC-MS/MS method. MS conditions were optimized for each analyte.
as §1

[7] = read-out: SST5 potency, inhibition of cAMP via human SST5 receptor, Table B
[8] = t = 0 min pre-incubation, read-out: CYP2D6 inhibition, IC50 (μM) t = 0 min
[9] = t = 30 min pre-incubation, read-out: CYP2D6 inhibition, IC50 (μM) t = 30 min

T4 sequence (P10635 whole entry): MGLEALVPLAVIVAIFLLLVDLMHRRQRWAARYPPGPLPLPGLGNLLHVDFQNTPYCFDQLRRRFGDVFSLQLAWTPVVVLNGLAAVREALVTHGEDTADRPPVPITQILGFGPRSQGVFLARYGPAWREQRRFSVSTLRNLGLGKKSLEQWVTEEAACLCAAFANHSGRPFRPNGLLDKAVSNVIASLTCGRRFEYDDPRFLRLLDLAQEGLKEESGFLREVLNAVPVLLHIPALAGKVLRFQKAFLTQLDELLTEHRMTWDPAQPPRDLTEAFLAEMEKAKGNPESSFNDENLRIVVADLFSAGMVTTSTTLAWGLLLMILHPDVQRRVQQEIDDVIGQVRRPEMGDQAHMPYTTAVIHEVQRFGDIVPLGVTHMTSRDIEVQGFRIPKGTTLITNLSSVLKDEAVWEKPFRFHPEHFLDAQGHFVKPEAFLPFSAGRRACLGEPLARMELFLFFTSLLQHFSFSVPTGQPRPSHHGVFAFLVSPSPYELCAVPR
T2 sequence (P32745 whole entry): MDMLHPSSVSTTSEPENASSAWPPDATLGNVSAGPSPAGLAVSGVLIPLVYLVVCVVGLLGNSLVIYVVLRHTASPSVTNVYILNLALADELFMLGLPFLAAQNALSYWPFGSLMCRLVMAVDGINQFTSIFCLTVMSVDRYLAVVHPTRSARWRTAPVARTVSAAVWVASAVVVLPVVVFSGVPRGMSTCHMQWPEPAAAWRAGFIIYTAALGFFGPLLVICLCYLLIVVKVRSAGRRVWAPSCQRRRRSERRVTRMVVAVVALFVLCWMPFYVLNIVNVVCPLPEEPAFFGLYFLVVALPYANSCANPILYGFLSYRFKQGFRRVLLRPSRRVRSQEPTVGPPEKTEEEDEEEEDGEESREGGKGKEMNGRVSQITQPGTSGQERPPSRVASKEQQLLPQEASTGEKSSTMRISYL
T1 sequence (P31391 whole entry): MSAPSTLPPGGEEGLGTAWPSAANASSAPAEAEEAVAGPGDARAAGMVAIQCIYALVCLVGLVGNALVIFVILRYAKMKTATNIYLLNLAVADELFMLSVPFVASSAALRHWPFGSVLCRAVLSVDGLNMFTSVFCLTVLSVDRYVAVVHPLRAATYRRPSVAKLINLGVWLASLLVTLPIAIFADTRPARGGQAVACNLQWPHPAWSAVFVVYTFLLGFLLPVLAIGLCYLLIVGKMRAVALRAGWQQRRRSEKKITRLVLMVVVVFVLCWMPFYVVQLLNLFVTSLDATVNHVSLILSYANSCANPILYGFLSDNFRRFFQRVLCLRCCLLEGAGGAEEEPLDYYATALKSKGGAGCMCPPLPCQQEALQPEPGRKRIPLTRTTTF
T3 sequence (P30874 whole entry): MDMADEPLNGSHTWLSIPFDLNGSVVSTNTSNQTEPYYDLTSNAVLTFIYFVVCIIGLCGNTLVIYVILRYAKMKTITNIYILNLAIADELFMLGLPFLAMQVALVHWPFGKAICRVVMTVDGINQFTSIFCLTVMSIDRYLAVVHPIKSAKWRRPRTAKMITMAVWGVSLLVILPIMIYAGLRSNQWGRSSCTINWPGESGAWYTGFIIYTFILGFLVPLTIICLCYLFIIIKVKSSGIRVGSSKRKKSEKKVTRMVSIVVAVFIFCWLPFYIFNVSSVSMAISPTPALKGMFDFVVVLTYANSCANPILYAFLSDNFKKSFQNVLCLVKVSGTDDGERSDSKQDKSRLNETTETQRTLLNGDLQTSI
Sequence of human somatostatin receptor subtype 5 (P35346 whole entry): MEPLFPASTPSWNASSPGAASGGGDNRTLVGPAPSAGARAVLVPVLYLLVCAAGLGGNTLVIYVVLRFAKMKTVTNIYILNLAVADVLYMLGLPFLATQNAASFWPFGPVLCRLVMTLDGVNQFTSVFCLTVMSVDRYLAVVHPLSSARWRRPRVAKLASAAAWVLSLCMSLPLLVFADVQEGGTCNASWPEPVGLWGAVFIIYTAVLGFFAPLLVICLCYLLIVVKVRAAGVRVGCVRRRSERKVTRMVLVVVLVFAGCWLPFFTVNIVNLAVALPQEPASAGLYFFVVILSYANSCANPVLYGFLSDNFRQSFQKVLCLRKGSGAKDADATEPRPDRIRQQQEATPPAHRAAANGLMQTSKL

SMILES	EC50 [1]	Fold selectivity for SST5 vs SST2 [1]	EC50 [1, 7]	Fold selectivity for SST5 vs SST4 [2]	Fold selectivity for SST5 vs SST3 [3]	EC50 [4]	IC50 [5, 8]	IC50 [5, 9]	half-life at 1 μM [6]
CCC(N)C1CN(c2c(-c3cc(C)cc(F)c3)cncc2-c2nc3cc(F)cc(F)c3[nH]2)C1 (centres unmarked) [Compound 1-51, 1-{1-[3-(4,6-difluoro-1H-1,3-benzodiazol-2-yl)-5-(3-fluoro-5-methylphenyl)pyridin-4-yl]azetidin-3-y}propan-1-amine]	< 0.01 µM	+++ (+++=≥500)	< 0.01 µM	812 fold	200 fold	> 1 µM			
CC(N)C1CN(c2c(-c3ccc(F)c(C#N)c3)cncc2-c2nc3cc(F)cc(F)c3[nH]2)C1 (centres unmarked) [Compound 1-65, 5-{4-[3-(1-aminoethyl)azetidin-1-yl]-5-(4,6-difluoro-1H-1,3-benzodiazol-2-yl)pyridin-3-yl}-2-fluorobenzonitrile]	< 0.01 µM	+++ (+++=≥500)	< 0.01 µM	384 fold	>1000 fold	0.1 to 1 µM			
Cc1cccc2[nH]c(-c3cncc(-c4cc(F)cc(C#N)c4)c3N3CC[C@H](N)C3)nc12 [Compound 2-34, 3-{4-[(3S)-3-aminopyrrolidin-1-yl]-5-(4-methyl-1H-1,3-benzodiazol-2-yl)pyridin-3-yl}-5-fluorobenzonitrile]							> 10 µM	> 10 µM	> 11.6 h
Cc1ccc(F)c2[nH]c(-c3cncc(-c4cc(F)cc(C#N)c4)c3N3CC[C@H](N)C3)nc12 [Compound 2-63, 3-{4-[(3S)-3-aminopyrrolidin-1-yl]-5-(7-fluoro-4-methyl-1H-1,3-benzodiazol-2-yl)pyridin-3-yl}-5-fluorobenzonitrile]	< 0.01 µM	+++ (+++=≥500)	< 0.01 µM	18 fold	43 fold	0.1 to 1 µM			
Cc1ccc(F)c2nc(-c3cncc(-c4cccc(C#N)c4)c3N3CC[C@H](N)C3)[nH]c12 [Compound 2-101, 3-{4-[(3S)-3-aminopyrrolidin-1-yl]-5-(7-fluoro-4-methyl-1H-1,3-benzodiazol-2-yl)pyridin-3-yl}benzonitrile]	< 0.01 µM	+++ (+++=≥500)	< 0.01 µM	11 fold	42 fold	0.1 to 1 µM			
Cc1cccc2nc(-c3cncc(-c4ccnc(C#N)c4)c3N3CC[C@](C)(N)C3)[nH]c12 [Compound 2-145, 4-[(3S)-3-amino-3-methylpyrrolidin-1-yl]-5-(4-methyl-1H-1,3-benzodiazol-2-yl)-[3,4′-bipyridine]-2′-carbonitrile]	< 0.01 µM	+++ (+++=≥500)	< 0.01 µM	63 fold		0.1 to 1 µM			
Cc1ccnc2[nH]c(-c3cncc(-c4ccc(F)c(C#N)c4)c3N3CC[C@](C)(N)C3)nc12 [Compound 2-154, 5-{4-[(3S)-3-amino-3-methylpyrrolidin-1-yl]-5-{7-methyl-1H-imidazo[4,5-b]pyridin-2-yl}pyridin-3-yl}-2-fluorobenzonitrile]	< 0.01 µM	++ (++=100 to 499)	< 0.01 µM		118 fold	0.01 to 0.1 µM	> 10 µM	> 10 µM	> 11.6 h
Cc1ccnc2[nH]c(-c3cncc(-c4cc(F)c(F)c(C#N)c4)c3N3CC[C@](C)(N)C3)nc12 [Compound 2-165, 5-{4-[(3S)-3-amino-3-methylpyrrolidin-1-yl]-5-{7-methyl-1H-imidazo[4,5-b]pyridin-2-yl}pyridin-3-yl}-2,3-difluorobenzonitrile]	< 0.01 µM	++ (++=100 to 499)	< 0.01 µM	56 fold		0.1 to 1 µM			
C[C@]1(N)CCN(c2c(-c3ccc(F)c(C#N)c3)cncc2-c2nc3cccc(C#N)c3[nH]2)C1 [Compound 2-171, 2-{4-[(3S)-3-amino-3-methylpyrrolidin-1-yl]-5-(3-cyano-4-fluorophenyl)pyridin-3-yl}-1H-1,3-benzodiazole-7-carbonitrile]	< 0.01 µM	+++ (+++=≥500)	< 0.01 µM	18 fold	183 fold	0.1 to 1 µM			
Cc1cc(-c2cncc(-c3nc4c(F)cccc4[nH]3)c2N2CC[C@](C)(N)C2)ccn1 [Compound 2-178, (3S)-1-[5-(4-fluoro-1H-1,3-benzodiazol-2-yl)-2′-methyl-[3,4′-bipyridin]-4-yl]-3-methylpyrrolidin-3-amine]	< 0.01 µM	++ (++=100 to 499)	< 0.01 µM		147 fold	> 1 µM	> 10 µM	9.7 µM	3.85 h
C[C@]1(N)CCN(c2c(-c3ccnc(C(F)(F)F)c3)cncc2-c2nc3c(F)cccc3[nH]2)C1 [Compound 2-186, (3S)-1-[5-(4-fluoro-1H-1,3-benzodiazol-2-yl)-2′-(trifluoromethyl)-[3,4′-bipyridin]-4-yl]-3-methylpyrrolidin-3-amine]	< 0.01 µM	+++ (+++=≥500)	< 0.01 µM		158 fold	0.1 to 1 µM	5.4 µM	1.1 µM	5.78 h
COc1cc(-c2cncc(-c3nc4c(F)cccc4[nH]3)c2N2CC[C@](C)(N)C2)ccn1 [Compound 2-187, (3S)-1-[5-(4-fluoro-1H-1,3-benzodiazol-2-yl)-2′-methoxy-[3,4′-bipyridin]-4-yl]-3-methylpyrrolidin-3-amine]	< 0.01 µM	++ (++=100 to 499)	< 0.01 µM		93 fold	0.1 to 1 µM	> 10 µM	2.9 µM	0.683 h
Cc1cc(-c2cncc(-c3nc4nccc(C)c4[nH]3)c2N2CC[C@](C)(N)C2)ccc1F [Compound 2-188, (3S)-1-[3-(4-fluoro-3-methylphenyl)-5-{7-methyl-1H-imidazo[4,5-b]pyridin-2-yl}pyridin-4-yl]-3-methylpyrrolidin-3-amine]	< 0.01 µM	++ (++=100 to 499)	< 0.01 µM		16 fold	0.1 to 1 µM	> 10 µM	8.7 µM	0.55 h
C[C@]1(N)CCN(c2c(-c3cccc(C#N)c3)cncc2-c2nc3c(F)cccc3[nH]2)C1 [Compound 2-200, 3-{4-[(3S)-3-amino-3-methylpyrrolidin-1-yl]-5-(4-fluoro-1H-1,3-benzodiazol-2-yl)pyridin-3-yl}benzonitrile]	< 0.01 µM	+++ (+++=≥500)	< 0.01 µM	136 fold	159 fold	0.1 to 1 µM			
